{"source": "patent US20040054014A1", "about": "“Method and pharmaceutical compositions forthe treatment of cancer” (priority 2002, published 2004)", "key": {"[1]": {"tested_on": "PANC-1, C6, MCF-7, U20S and HT1080 cell lines", "conditions": "48 hours; for reduction in cell survival, drug alone: non-resistant cell lines, 0.1 μg/ml DOX, 0.3 μg/ml VIN"}, "[2]": {"tested_on": "P388/ADR cells", "experiment": "Intracellular accumulation of Doxorubicin, confocal microscopy (system II)", "type": "cell-based, murine", "description": "(§1) At the end of the incubation time, the cells were washed 6 times with PBS, fixed with a mounting medium (Mounting medium with anti-fading agents, Biomeda corp., CA, USA) and were analysed by Confocal microscopy (Zeiss LSM 510). Excitation was at 488 nm and emission was measured using a band pass filter of 505-550 nm."}, "[3]": {"tested_on": "P388/ADR cell line", "experiment": "MTT cell viability, MDR-acquired cell line", "type": "cell-based, murine", "conditions": "for increase in cell death, combined treatment with DOX: DOX (1, 5, 10 μg/ml) + 5 μM chemosensitizer", "description": "(§2) After 4 hours incubation, the treatment media was replaced with CS- and CT-free media and the experiment was terminated 24 hours later."}, "[4]": {"tested_on": "P388/ADR", "experiment": "Intraperitoneal ascites model, MDR-acquired tumor, survival", "type": "in vivo, mice", "conditions": "DOX 3 mg/kg + fluoxetine 0.04 mg/kg daily oral"}, "[5]": {"experiment": "Animals' body weight (treatment toxicity) in P388/WT and P388/ADR models", "type": "in vivo, mice", "conditions": "fluoxetine 0.04 mg/kg daily oral only; DOX 3 mg/kg days 1, 5, 9; both tumor models", "description": "(§3) P388/WT (non-resistant) or P388/ADR (MDR-acquired) murine leukemia cells were propagated in the peritoneum of BDF1 female mice by weekly transfer of 0.5 ml of peritoneal fluid containing 5×10^5 cells, to generate an intraperitoneal ascites model.\n(§4) In both models, Doxorubicin (DOX) was tested. Doses of 3 mg/kg body were injected into the lateral tail vain, 1, 5 and 9 days after tumor inoculation.\n(§5) Comparative experiments were run in parallel with the sensitive, non-resistant P388/WT model and the corresponding, MDR-acquired P388/ADR model. […] A group of untreated healthy animals was served as a control group. […] The fluoxetine was given in the drinking water, from tumor inoculation and on. Doxorubicin was injected into the lateral tail vain 1, 5 and 9 days post tumor inoculation. The effects of the various treatments on tumor response were monitored through animals' survival and animals' body weight. The latter was monitored in order to assess the treatment toxicity."}, "[6]": {"tested_on": "B16F10 cells", "experiment": "Lung metastasis model (inherent MDR)", "type": "in vivo, mice", "conditions": "for lung metastatic burden (lung weight, number of metastasis), single agent: Doxorubicin 10 mg/kg alone, chemosensitizer 0.04 mg/kg daily oral alone"}, "[7]": {"tested_on": "C-26 cells", "experiment": "Intracellular accumulation of Rhodamine-123, confocal microscopy (system II)", "type": "cell-based, murine", "conditions": "5 μM Rhodamine-123 + […] μM chemosensitizer, monolayers", "description": "as §1"}, "[8]": {"tested_on": "P388/ADR cells", "experiment": "Intracellular accumulation of Rhodamine-123, flow cytometry (system I)", "type": "cell-based, murine", "conditions": "5 μM Rhodamine-123 + […] μM chemosensitizer, suspended cells", "text": "The cells were thereafter analyzed for intracellular fluorescence, using a flow cytometer (Becton-Dickinson, USA). Excitation and emission were at 485 nm and 547 nm, respectively."}, "[9]": {"tested_on": "P388/WT", "experiment": "Intraperitoneal ascites model, non-resistant tumor, survival", "type": "in vivo, mice", "conditions": "DOX 3 mg/kg + fluoxetine 0.04 mg/kg daily oral", "description": "as §3, §4, §5"}, "[10]": {"tested_on": "C-26 cells", "experiment": "Solid tumor model (inherent MDR)", "type": "in vivo, mice", "conditions": "for solid tumor volume with time, single agent: fluoxetine 0.04 mg/kg daily oral alone, MMC or DOX 5 mg/kg i.v. alone", "description": "In the solid tumor model, MDR-inherent C-26 cells were injected into the animal's right-hind footpad.\nIn the solid tumor model, Mitomycin C (MMC) and Doxorubicin (DOX) were tested separately, each at a dose of 5 mg/kg body."}, "[11]": {"conditions": "cited from earlier work"}, "[12]": {"tested_on": "P388/WT cell line", "experiment": "MTT cell viability, non-resistant cell line", "type": "cell-based, murine", "description": "as §2"}, "[13]": {"tested_on": "B16F10 and C-26 cell lines", "conditions": "Mitomycin C 50 μg/ml or Doxorubicin 1.0 μg/ml with 15 μM fluoxetine"}, "[14]": {"tested_on": "C6 and PANC-1 cells", "parameters": "dose or concentration left out as unconfirmed", "conditions": "[…] μM fluoxetine alone, 24 hours"}, "[15]": {"tested_on": "C6 cells", "conditions": "cells loaded with 0.1 μg/ml DOX alone"}, "[16]": {"conditions": "fluoxetine alone 1-20 μM, 4 hours then 20 hours CS-free media"}}}
{"compound": "CNCCC(Oc1ccc(C(F)(F)F)cc1)c1ccccc1", "note": "(centres unmarked) [fluoxetine, N-methyl 3-(p-trifluoromethylphenoxy)-3-phenylpropylamine]", "values": [{"measurement": "toxicity to the cells", "setting": "[1]; fluoxetine alone, 0-15 μM", "value": "not toxic to the cells"}, {"measurement": "intracellular level of DOX (confocal images)", "setting": "[2]; 5 μg/ml Doxorubicin + 5 μM fluoxetine, monolayers", "value": "substantial increase in the intracellular level of DOX"}, {"measurement": "increase in cell death, combined treatment with DOX", "setting": "[3]", "value": "significant increase"}, {"measurement": "increase in cell death as compared with Verapamil and CsA", "setting": "[3]; DOX + 5 μM fluoxetine vs DOX + 5 μM Verapamil or CsA", "value": "2-3 fold"}, {"measurement": "effect on cells viability", "setting": "[3]; [16]", "value": "no effect on cells viability"}, {"measurement": "elongated life span, combination of fluoxetine and DOX", "setting": "[4]", "value": "more than 2 fold"}, {"measurement": "change in body weight, single agent", "setting": "[5]", "value": "no weight loss"}, {"measurement": "survival, CS alone", "setting": "[6]; 75-days experiment", "value": "died rather early"}, {"measurement": "survival, combination treatment", "setting": "[6]; CS + Doxorubicin, 75-days experiment", "value": "long survivors"}, {"measurement": "lung metastatic burden (lung weight, number of metastasis), single agent", "setting": "[6]", "value": "highest metastatic burden"}, {"measurement": "lung metastatic burden, combination treatment", "setting": "[6]; chemosensitizer + Doxorubicin 10 mg/kg", "value": "substantial reduction"}, {"measurement": "intracellular accumulation of Rhodamine-123 (confocal images)", "setting": "[7]", "value": "substantially higher increase in the intracellular accumulation of Rhodamine-123"}, {"measurement": "increase of intracellular Rhodamine-123 fluorescence vs chemosensitizer-free control", "setting": "[8]", "value": "about 200%"}, {"measurement": "animals' survival, combined DOX and fluoxetine", "setting": "[9]", "value": "had no effect on animal's survival"}, {"measurement": "survival prolonged vs saline, CS alone and CT alone", "setting": "[10]; DOX+CS (DOX 5 mg/kg, fluoxetine 0.04 mg/kg daily oral)", "value": 3, "unit": "fold"}, {"measurement": "survival prolonged vs saline, CS alone and CT alone", "setting": "[10]; MMC+CS (MMC 5 mg/kg, fluoxetine 0.04 mg/kg daily oral)", "value": 2, "unit": "fold"}, {"measurement": "solid tumor growth, combination therapy", "setting": "[10]; fluoxetine 0.04 mg/kg daily oral + MMC or DOX 5 mg/kg", "value": "tumor growth is significantly slower"}, {"measurement": "solid tumor volume with time, single agent", "setting": "[10]", "value": "increases fast and exponentially"}, {"measurement": "safe, substantially side effect-free daily dose range", "setting": "[11]", "value": "10-15 mg/M^2"}, {"measurement": "effect of combination treatment on level of cells death", "setting": "[12]; DOX with 5 μM fluoxetine vs DOX alone", "value": "had no effect on the level of cells death"}, {"measurement": "effect on cells viability", "setting": "[12]; [16]", "value": "no effect on cells viability"}, {"measurement": "cell death, combination of the drug and fluoxetine", "setting": "[13]", "value": "80-90%"}, {"measurement": "effect on cell survival", "setting": "[14]", "value": "does not affect cell survival at all"}]}
{"compound": "CO[C@@]12[C@H](COC(N)=O)C3=C(C(=O)C(C)=C(N)C3=O)N1C[C@@H]1N[C@@H]12", "note": "[Mitomycin C]", "values": [{"measurement": "solid tumor volume with time, single agent", "setting": "[10]", "value": "increases fast and exponentially"}]}
{"compound": "COc1ccc(CCN(C)CCCC(C#N)(c2ccc(OC)c(OC)c2)C(C)C)cc1OC", "note": "(centres unmarked) [Verapamil]", "values": [{"measurement": "increase in cell death, combined treatment with DOX", "setting": "[3]", "value": "modest increase in cell death"}, {"measurement": "intracellular accumulation of Rhodamine-123 (confocal images)", "setting": "[7]", "value": "an increase in the intracellular level of Rhodamine-123"}, {"measurement": "increase of intracellular Rhodamine-123 fluorescence vs chemosensitizer-free control", "setting": "[8]", "value": "about 60%"}]}
{"compound": "CC[C@]1(O)C[C@@H]2CN(CCc3c([nH]c4ccccc34)[C@@](C(=O)OC)(c3cc4c(cc3OC)N(C)[C@H]3[C@@](O)(C(=O)OC)[C@H](OC(C)=O)[C@]5(CC)C=CCN6CC[C@]43[C@@H]65)C2)C1", "note": "[Vinblastine]", "values": [{"measurement": "reduction in cell survival, drug alone", "setting": "[1]", "value": 50, "unit": "%"}]}
{"compound": "COc1cccc2c1C(=O)c1c(O)c3c(c(O)c1C2=O)C[C@@](O)(C(=O)CO)C[C@@H]3O[C@H]1C[C@H](N)[C@H](O)[C@H](C)O1", "note": "[Doxorubicin]", "values": [{"measurement": "reduction in cell survival, drug alone", "setting": "[1]", "value": 50, "unit": "%"}, {"measurement": "intracellular accumulation of doxorubicin alone (confocal images)", "setting": "[2]; 5 μg/ml Doxorubicin alone", "value": "quite poor"}, {"measurement": "cell death", "setting": "[3]; 5 μg/ml DOX alone", "value": "< 20", "unit": "%"}, {"measurement": "cell death", "setting": "[3]; doubled drug concentration (10 μg/ml DOX) alone", "value": "about 30%"}, {"measurement": "change in body weight, single agent", "setting": "[5]", "value": "minor weight decrease"}, {"measurement": "lung metastatic burden (lung weight, number of metastasis), single agent", "setting": "[6]", "value": "only a mild reduction in the metastatic burden"}, {"measurement": "solid tumor volume with time, single agent", "setting": "[10]", "value": "increases fast and exponentially"}, {"measurement": "cell death", "setting": "[12]; 0.5 μg/ml DOX alone", "value": "about 50%"}, {"measurement": "cell death", "setting": "[12]; 5 μg/ml DOX alone", "value": 100, "unit": "%"}, {"measurement": "time for complete depletion of intracellular DOX", "setting": "[15]", "value": "≤ 2", "unit": "h"}]}
